This is an account of results in patent US20240417410A1, “TRICYCLIC COMPOUNDS FOR THE TREATMENT OF CANCER” (Hoffmann-La Roche Inc., priority 2023, published 2024).

Molecules are shown by their SMILES.

Assay [1] deals with KRAS G12C-BRAF complex (Homo sapiens (Human), UniProt P01116+P62937, G12C). The assay is described as follows: KRAS-BRAF with CYPA (500 nM) interaction assay (TR-FRET, Example 136). Format: biochemical. The settings on record: KRAS G12C-BRAF disruption.
The subject of assay [2] is AGS cells (KRAS G12D). Put plainly: Cell viability assay (Cell Counting Kit-8, 3-day). The settings on record: Homo sapiens, 72 h, 72 hrs incubation. Format: cell-based, human. The gist of the method:
(§1)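 Cells were seeded at 5,000 cells/well (NCI-H358) or 2,000 cells/well (AGS, SW620), incubated overnight, then treated with compounds in 0.5% DMSO final for 72 hrs. CCK-8 was added and OD450 minus OD650 read after 2 hrs; IC50 came from a 4-parameter sigmoidal fit.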
Background: Tetrazolium dyes change colour on reduction, which living cells bring about.

In assay [3] the test system is NCI-H358 cells (KRAS G12C). Put plainly: Cell viability assay (Cell Counting Kit-8, 3-day). The settings on record: Homo sapiens, NCI-H358, 72 h, NCI-H358, 72 hrs incubation. Format: cell-based, human. The gist of the method:
as §1

Assay [4] deals with SW620 cells (KRAS G12V). Put plainly: Cell viability assay (Cell Counting Kit-8, 3-day). The following applies: Homo sapiens, SW-620; SW620, 72 hrs incubation. It is filed as cell-based, human. The essentials:
as §1

In assay [5] the test system is phosphorylation of ERK, KRAS G12D in AGS cells. Put plainly: pERK inhibition assay. The settings on record: Homo sapiens, AGS, 4 h. It is filed as cell-based. The gist of the method:
(§2)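 Cells in RPMI-1640 with 10% FBS were plated overnight (30,000/well H358, 20,000 AGS, 30,000 SW620) and treated 4 h with compounds at 0.5% DMSO. After formaldehyde fixation and methanol permeabilization, pERK was detected by in-cell ELISA with HRP secondary and TMB (OD450); IC50 from 4-parameter fit.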

For assay [6], the system named is phosphorylation of ERK, KRAS G12V in SW620. The assay is described as follows: pERK inhibition assay. Format: cell-based. The settings on record: Homo sapiens, SW-620, 4 h, SW620 cells. The essentials: as §2
Assay [7] has as its system phosphorylation of ERK, KRAS G12C in NCI-H358 cells. Put plainly: pERK inhibition assay. It is filed as cell-based. The settings on record: Homo sapiens, NCI-H358, 4 h. The essentials: as §2

Chain of KRAS G12C-BRAF complex (P01116-2 other isoform, or with tags, fused parts or gaps G12C): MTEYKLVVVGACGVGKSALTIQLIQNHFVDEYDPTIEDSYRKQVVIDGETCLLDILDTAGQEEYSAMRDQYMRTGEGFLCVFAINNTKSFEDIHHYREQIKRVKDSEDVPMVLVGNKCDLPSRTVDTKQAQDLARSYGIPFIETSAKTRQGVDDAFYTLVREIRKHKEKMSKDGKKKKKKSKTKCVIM
Chain of KRAS G12C-BRAF complex (P62937 whole entry): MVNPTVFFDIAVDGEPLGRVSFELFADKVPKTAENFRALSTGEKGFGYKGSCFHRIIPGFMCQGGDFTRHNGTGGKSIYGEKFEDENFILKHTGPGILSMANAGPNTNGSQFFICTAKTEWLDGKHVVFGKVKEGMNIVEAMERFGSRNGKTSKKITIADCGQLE

Consider `CO[C@@H](C)c1ncc(N2CCN(C)CC2)cc1-c1c2c3cc(cc4c3n1CCO4)-c1csc(n1)C[C@H](NC(=O)[C@H]1[C@H](C)[C@@H]1C)C(=O)N1CCC[C@H](N1)C(=O)OCC(C)(C)C2` (atropisomer, axis not shown; (M)) [Example 45, (1r,2S,3R)-N-[(7S,13S)-(20M)-20-[2-[(1S)-1-methoxyethyl]-5-(4-methylpiperazin-1-yl)-3-pyridyl]-17,17-dimethyl-8,14-dioxo-15,24-dioxa-4-thia-9,21,30,31-tetrazahexacyclo[23.3.1.1^2,5.1^9,13.0^19,27.0^21,26]hentriaconta-1 (28),2,5 (31),19,25 (29),26-hexaen-7-yl]-2,3-dimethyl-cyclopropanecarboxamide], for which the IC50 came out at 14.1 nM in assay [1]; 3.6 nM in assay [2]; 1.8 nM in assay [3]; 0.2 nM in assay [4]; 2.1 nM in assay [5]; 0.2 nM in assay [6]. Besides, in assay [7], the IC50 was found to be 0.6 nM.

Regarding `CO[C@@H](C)c1ncc(N2CCOCC2)cc1-c1c2c3cc(cc4c3n1CCC4)-c1csc(n1)C[C@H](NC(=O)[C@H]1C[C@@H]1c1cncnc1)C(=O)N1CCC[C@H](N1)C(=O)OCC(C)(C)C2` (atropisomer, axis not shown; (M)) [Example 94, (1S,2S)-N-[(7S,13S)-(20M)-20-[2-[(1S)-1-methoxyethyl]-5-morpholino-3-pyridyl]-17,17-dimethyl-8,14-dioxo-15-oxa-4-thia-9,21,30,31-tetrazahexacyclo[23.3.1.1^2,5.1^9,13.0^19,27.0^21,26]hentriaconta-1 (28),2,5 (31),19,25 (29),26-hexaen-7-yl]-2-pyrimidin-5-yl-cyclopropanecarboxamide], the IC50 in assay [1] was determined as 6.9 nM; in assay [2], 6.9 nM; in assay [3] it was 2.3 nM; in assay [4], 0.5 nM; in assay [5], 2.4 nM; in assay [6], 0.4 nM. This molecule also showed an IC50 in assay [7] of 0.4 nM.

Regarding `CO[C@@H](C)c1ncc(N2CCN(C)CC2)cc1-c1c2c3cc(cc4c3n1CCC4)-c1csc(n1)C[C@H](NC(=O)[C@H]1[C@@H]3CC(F)(F)C[C@@H]31)C(=O)N1CCC[C@H](N1)C(=O)OCC(C)(C)C2` (atropisomer, axis not shown; (M)) [Example 48, (1S,5R)-3,3-difluoro-N-[(7S,13S)-(20M)-20-[2-[(1S)-1-methoxyethyl]-5-(4-methylpiperazin-1-yl)-3-pyridyl]-17,17-dimethyl-8,14-dioxo-15-oxa-4-thia-9,21,30,31-tetrazahexacyclo[23.3.1.1^2,5.1^9,13.0^19,27.0^21,26]hentriaconta-1 (28),2,5 (31), 19,25 (29),26-hexaen-7-yl]bicyclo[3.1.0]hexane-6-carboxamide], the IC50 in assay [1] was 4.4 nM; in assay [2], 26.5 nM; in assay [3], 9.5 nM; in assay [4], 1.7 nM; in assay [5], 10.1 nM; in assay [6] it was 1 nM. Further, half-maximal inhibition in assay [7] (IC50) required 1.2 nM.

Regarding `CO[C@@H](C)c1ncc(N2CCN(C)CC2)cc1-c1c2c3cc(cc4c3n1CCC4)-c1csc(n1)C[C@H](NC(=O)[C@H]1C[C@@H]1c1cccnc1)C(=O)N1CCC[C@H](N1)C(=O)OCC(C)(C)C2` (atropisomer, axis not shown; (M)) [Example 56, (1S,2S)-N-[(7S,13S)-(20M)-20-[2-[(1S)-1-methoxyethyl]-5-(4-methylpiperazin-1-yl)-3-pyridyl]-17,17-dimethyl-8,14-dioxo-15-oxa-4-thia-9,21,30,31-tetrazahexacyclo[23.3.1.1^2,5.1^9,13.0^19,27.0^21,26]hentriaconta-1 (28),2,5 (31), 19,25 (29),26-hexaen-7-yl]-2-(3-pyridyl)cyclopropanecarboxamide], the half-inhibitory concentration (IC50) in assay [1] worked out at 10.3 nM; in assay [2] it was 5.2 nM; in assay [3], 1.2 nM; in assay [4], 0.3 nM; in assay [5], 2.7 nM; in assay [6], 0.6 nM. The same molecule returned a half-maximal inhibitory concentration (IC50) in assay [7] of 0.8 nM.

In the case of `CO[C@@H](C)c1ncc(N2CCN(C)CC2)cc1-c1c2c3cc(cc4c3n1CCC4)-c1csc(n1)C[C@H](NC(=O)[C@H]1C[C@@H]1c1ccccc1)C(=O)N1CCC[C@H](N1)C(=O)OCC(C)(C)C2` (atropisomer, axis not shown; (M)) [Example 22, (1S,2S)-N-[(7S,13S)-(20M)-20-[2-[(1S)-1-methoxyethyl]-5-(4-methylpiperazin-1-yl)-3-pyridyl]-17,17-dimethyl-8,14-dioxo-15-oxa-4-thia-9,21,30,31-tetrazahexacyclo[23.3.1.1^2,5.1^9,13.0^19,27.0^21,26]hentriaconta-1 (28),2,5 (31), 19,25 (29),26-hexaen-7-yl]-2-phenyl-cyclopropanecarboxamide], the IC50 is 6.4 nM in assay [1]; 14.2 nM in assay [2]; 3.1 nM in assay [3]; 0.8 nM in assay [4]; 3.8 nM in assay [5]; 0.7 nM in assay [6]. Moreover, half-maximal inhibition in assay [7] (IC50) was put at 0.6 nM.

For the molecule `CO[C@@H](C)c1ncc(N2CCN(C)CC2)cc1-c1c2c3cc(cc4c3n1CCC4)-c1csc(n1)C[C@H](NC(=O)[C@H]1C[C@@H]1C(F)F)C(=O)N1CCC[C@H](N1)C(=O)OCC(C)(C)C2` (atropisomer, axis not shown; (M)) [Example 14, (1S,2S)-2-(difluoromethyl)-N-[(7S,13S)-(20M)-20-[2-[(1S)-1-methoxyethyl]-5-(4-methylpiperazin-1-yl)-3-pyridyl]-17,17-dimethyl-8,14-dioxo-15-oxa-4-thia-9,21,30,31-tetrazahexacyclo[23.3.1.1^2,5.1^9,13.0^19,27.0^21,26]hentriaconta-1 (28),2,5 (31),19,25 (29),26-hexaen-7-yl]cyclopropanecarboxamide], the IC50 came to 22.2 nM in assay [1]; 17.5 nM in assay [2]; 3.6 nM in assay [3]; 1 nM in assay [4]; 5.6 nM in assay [5]; 0.7 nM in assay [6]. For the same molecule, in assay [7], inhibition was half-maximal at 0.8 nM (IC50).

As for `CO[C@@H](C)c1ncc(N2CCN(C)CC2)cc1-c1c2c3cc(cc4c3n1CC(F)(F)C4)-c1csc(n1)C[C@H](NC(=O)[C@H]1[C@@H]3COC[C@@H]31)C(=O)N1CCC[C@H](N1)C(=O)OCC(C)(C)C2` (atropisomer, axis not shown; (M)) [Example 60], the IC50 is 15.2 nM in assay [1]; 32 nM in assay [2]; 8.2 nM in assay [3]; 1.7 nM in assay [4]; 8.2 nM in assay [5]; 0.9 nM in assay [6]. This molecule also returned an IC50 in assay [7] of 2.3 nM.

Consider `CO[C@@H](C)c1ncc(N2CCN3CCOC[C@@H]3C2)cc1-c1c2c3cc(cc4c3n1CCC4)-c1csc(n1)C[C@H](NC(=O)[C@H]1C[C@@H]1c1cncnc1)C(=O)N1CCC[C@H](N1)C(=O)OCC(C)(C)C2` (atropisomer, axis not shown; (M)) [Example 105, (1S,2S)-N-[(7S,13S)-(20M)-20-[5-[(9αS)-3,4,6,7,9,9a-hexahydro-1H-pyrazino[2,1-c][1,4]oxazin-8-yl]-2-[(1S)-1-methoxyethyl]-3-pyridyl]-17,17-dimethyl-8,14-dioxo-15-oxa-4-thia-9,21,30,31-tetrazahexacyclo[23.3.1.1^2,5.1^9,13.0^19,27.0^21,26]hentriaconta-1 (28),2,5 (31),19,25 (29),26-hexaen-7-yl]-2-pyrimidin-5-yl-cyclopropanecarboxamide], for which the IC50 in assay [1] stood at 13.3 nM; in assay [2], 6.8 nM; in assay [3], 1.5 nM; in assay [4], 0.6 nM; in assay [5], 2.2 nM; in assay [6], 0.4 nM. This molecule showed an IC50 in assay [7] of 1.5 nM.

`CO[C@@H](C)c1ncc(N2CCN(CC(F)(F)F)CC2)cc1-c1c2c3cc(cc4c3n1CCC4)-c1csc(n1)C[C@H](NC(=O)[C@H]1[C@@H]3COC[C@@H]31)C(=O)N1CCC[C@H](N1)C(=O)OCC(C)(C)C2` (atropisomer, axis not shown; (M)) [Example 13, (1S,5R,6r)-N-[(7S,13S)-(20M)-20-[2-[(1S)-1-methoxyethyl]-5-[4-(2,2,2-trifluoroethyl)piperazin-1-yl]-3-pyridyl]-17,17-dimethyl-8,14-dioxo-15-oxa-4-thia-9,21,30,31-tetrazahexacyclo[23.3.1.1^2,5.1^9,13.0^19,27.0^21,26]hentriaconta-1 (28),2,5 (31),19,25 (29),26-hexaen-7-yl]-3-oxabicyclo[3.1.0]hexane-6-carboxamide]: the IC50 in assay [1] worked out at 1.5 nM; in assay [2], 23 nM; in assay [3] it was 6.4 nM; in assay [4], 0.7 nM; in assay [5], 10.8 nM; in assay [6], 1.5 nM. For the same molecule, the midpoint of inhibition in assay [7], the IC50, lay at 3 nM.

By IC50 is commonly meant the point on the concentration scale where inhibition reaches its midpoint.
